Data: ChEMBL document CHEMBL5380831, “Azolylpyrimidinediols as Novel Structural Scaffolds of DNA-Groove Binders against Intractable Acinetobacter baumannii” (J Med Chem, 2023)
Values after ≈ are worked out from the molar mass of the structure shown.

Legend:
Format in all cases: functional
[1] = test system: Pseudomonas aeruginosa; assay: Antibacterial activity against Pseudomonas aeruginosa assessed as bacterial growth inhibition incubated for 24 hrs by broth microdilution method
[2] = test system: Staphylococcus aureus; assay: Antibacterial activity against Staphylococcus aureus ATCC 29213 assessed as bacterial growth inhibition incubated for 24 hrs by broth microdilution method
[3] = test system: Escherichia coli; assay: Antibacterial activity against Escherichia coli assessed as bacterial growth inhibition incubated for 24 hrs by broth microdilution method
[4] = test system: Staphylococcus aureus; assay: Antibacterial activity against methicillin-resistant Staphylococcus aureus assessed as bacterial growth inhibition incubated for 24 hrs by broth microdilution method
[5] = test system: Staphylococcus aureus; assay: Antibacterial activity against Staphylococcus aureus assessed as bacterial growth inhibition incubated for 24 hrs by broth microdilution method
[6] = test system: Escherichia coli; assay: Antibacterial activity against Escherichia coli ATCC 25922 assessed as bacterial growth inhibition incubated for 24 hrs by broth microdilution method
[7] = test system: Acinetobacter baumannii; assay: Antibacterial activity against Acinetobacter baumannii assessed as bacterial growth inhibition incubated for 24 hrs by broth microdilution method
[8] = test system: Enterococcus faecalis; assay: Antibacterial activity against Enterococcus faecalis assessed as bacterial growth inhibition incubated for 24 hrs by broth microdilution method
[9] = test system: Klebsiella pneumoniae; assay: Antibacterial activity against Klebsiella pneumoniae assessed as bacterial growth inhibition incubated for 24 hrs by broth microdilution method
[10] = test system: Staphylococcus aureus; assay: Antibacterial activity against Staphylococcus aureus ATCC 25923 assessed as bacterial growth inhibition incubated for 24 hrs by broth microdilution method
[11] = test system: Pseudomonas aeruginosa; assay: Antibacterial activity against Pseudomonas aeruginosa ATCC 27853 assessed as bacterial growth inhibition incubated for 24 hrs by broth microdilution method

SMILES	MIC [1]	MIC [2]	MIC [3]	MIC [4]	MIC [5]	MIC [6]	MIC [7]	MIC [8]	MIC [9]	MIC [10]	MIC [11]
Cc1nccn1-c1nccc(N(CCO)CCO)n1	973 µM (≈ 256 µg/mL)	973 µM (≈ 256 µg/mL)	973 µM (≈ 256 µg/mL)	973 µM (≈ 256 µg/mL)	973 µM (≈ 256 µg/mL)	1950 µM (≈ 512 µg/mL)	973 µM (≈ 256 µg/mL)	973 µM (≈ 256 µg/mL)	973 µM (≈ 256 µg/mL)	973 µM (≈ 256 µg/mL)	973 µM (≈ 256 µg/mL)
Cc1nccn1-c1ccnc(N(CCO)CCO)n1	486 µM (≈ 128 µg/mL)	1950 µM (≈ 512 µg/mL)	973 µM (≈ 256 µg/mL)	973 µM (≈ 256 µg/mL)	973 µM (≈ 256 µg/mL)	973 µM (≈ 256 µg/mL)	973 µM (≈ 256 µg/mL)	973 µM (≈ 256 µg/mL)	973 µM (≈ 256 µg/mL)	973 µM (≈ 256 µg/mL)	973 µM (≈ 256 µg/mL)
CCN(CCO)c1nccc(-n2cncn2)n1	547 µM (≈ 128 µg/mL)	1090 µM (≈ 256 µg/mL)	1090 µM (≈ 256 µg/mL)	1090 µM (≈ 256 µg/mL)	1090 µM (≈ 256 µg/mL)	547 µM (≈ 128 µg/mL)	1090 µM (≈ 256 µg/mL)	1090 µM (≈ 256 µg/mL)	1090 µM (≈ 256 µg/mL)	1090 µM (≈ 256 µg/mL)	1090 µM (≈ 256 µg/mL)
Cc1ncc([N+](=O)[O-])n1-c1ccnc(N(CCO)CCO)n1	415 µM (≈ 128 µg/mL)	–	415 µM (≈ 128 µg/mL)	831 µM (≈ 256 µg/mL)	415 µM (≈ 128 µg/mL)	831 µM (≈ 256 µg/mL)	415 µM (≈ 128 µg/mL)	406 µM (≈ 125 µg/mL)	415 µM (≈ 128 µg/mL)	831 µM (≈ 256 µg/mL)	1660 µM (≈ 512 µg/mL)
O=C(c1ccccc1)N1CCN(c2nccc(-n3cncn3)n2)CC1	382 µM (≈ 128 µg/mL)	764 µM (≈ 256 µg/mL)	764 µM (≈ 256 µg/mL)	764 µM (≈ 256 µg/mL)	764 µM (≈ 256 µg/mL)	6 µM (≈ 2.01 µg/mL)	764 µM (≈ 256 µg/mL)	764 µM (≈ 256 µg/mL)	6 µM (≈ 2.01 µg/mL)	764 µM (≈ 256 µg/mL)	764 µM (≈ 256 µg/mL)
CC(=O)N1CCN(c2nccc(-n3cncn3)n2)CC1	469 µM (≈ 128 µg/mL)	937 µM (≈ 256 µg/mL)	937 µM (≈ 256 µg/mL)	469 µM (≈ 128 µg/mL)	937 µM (≈ 256 µg/mL)	4 µM (≈ 1.09 µg/mL)	937 µM (≈ 256 µg/mL)	937 µM (≈ 256 µg/mL)	4 µM (≈ 1.09 µg/mL)	937 µM (≈ 256 µg/mL)	937 µM (≈ 256 µg/mL)
O=C(CCCCl)N1CCN(c2nccc(-n3cncn3)n2)CC1	764 µM (≈ 257 µg/mL)	764 µM (≈ 257 µg/mL)	382 µM (≈ 128 µg/mL)	382 µM (≈ 128 µg/mL)	764 µM (≈ 257 µg/mL)	382 µM (≈ 128 µg/mL)	382 µM (≈ 128 µg/mL)	382 µM (≈ 128 µg/mL)	382 µM (≈ 128 µg/mL)	382 µM (≈ 128 µg/mL)	382 µM (≈ 128 µg/mL)
OCCN(CCO)c1nccc(-n2cnc3ccccc32)n1	214 µM (≈ 64.1 µg/mL)	856 µM (≈ 256 µg/mL)	214 µM (≈ 64.1 µg/mL)	856 µM (≈ 256 µg/mL)	214 µM (≈ 64.1 µg/mL)	856 µM (≈ 256 µg/mL)	856 µM (≈ 256 µg/mL)	107 µM (≈ 32 µg/mL)	428 µM (≈ 128 µg/mL)	107 µM (≈ 32 µg/mL)	107 µM (≈ 32 µg/mL)
Cc1cn(-c2nccc(N(CCO)CCO)n2)cn1	973 µM (≈ 256 µg/mL)	973 µM (≈ 256 µg/mL)	973 µM (≈ 256 µg/mL)	973 µM (≈ 256 µg/mL)	973 µM (≈ 256 µg/mL)	1950 µM (≈ 512 µg/mL)	486 µM (≈ 128 µg/mL)	1950 µM (≈ 512 µg/mL)	973 µM (≈ 256 µg/mL)	1950 µM (≈ 512 µg/mL)	973 µM (≈ 256 µg/mL)
CC(=O)Nc1ccc(S(=O)(=O)N2CCN(c3nccc(-n4cncn4)n3)CC2)cc1	598 µM (≈ 256 µg/mL)	598 µM (≈ 256 µg/mL)	598 µM (≈ 256 µg/mL)	598 µM (≈ 256 µg/mL)	299 µM (≈ 128 µg/mL)	598 µM (≈ 256 µg/mL)	598 µM (≈ 256 µg/mL)	598 µM (≈ 256 µg/mL)	598 µM (≈ 256 µg/mL)	299 µM (≈ 128 µg/mL)	598 µM (≈ 256 µg/mL)
O=c1ccc2c(CN3CCN(c4nccc(-n5cncn5)n4)CC3)cc(O)cc2o1	316 µM (≈ 128 µg/mL)	632 µM (≈ 256 µg/mL)	632 µM (≈ 256 µg/mL)	316 µM (≈ 128 µg/mL)	316 µM (≈ 128 µg/mL)	633 µM (≈ 257 µg/mL)	158 µM (≈ 64.1 µg/mL)	316 µM (≈ 128 µg/mL)	632 µM (≈ 256 µg/mL)	316 µM (≈ 128 µg/mL)	632 µM (≈ 256 µg/mL)
Clc1ccc2c3ccccc3n(-c3nccc(-n4cncn4)n3)c2c1	3 µM (≈ 1.04 µg/mL)	740 µM (≈ 257 µg/mL)	740 µM (≈ 257 µg/mL)	740 µM (≈ 257 µg/mL)	740 µM (≈ 257 µg/mL)	740 µM (≈ 257 µg/mL)	740 µM (≈ 257 µg/mL)	185 µM (≈ 64.2 µg/mL)	740 µM (≈ 257 µg/mL)	740 µM (≈ 257 µg/mL)	740 µM (≈ 257 µg/mL)
CN(CCO)c1nccc(-n2cncn2)n1	291 µM (≈ 64.1 µg/mL)	1160 µM (≈ 256 µg/mL)	1160 µM (≈ 256 µg/mL)	1160 µM (≈ 256 µg/mL)	1160 µM (≈ 256 µg/mL)	582 µM (≈ 128 µg/mL)	1360 µM (≈ 300 µg/mL)	582 µM (≈ 128 µg/mL)	1160 µM (≈ 256 µg/mL)	1160 µM (≈ 256 µg/mL)	1160 µM (≈ 256 µg/mL)
O=S(=O)(c1ccc(F)cc1)N1CCN(c2nccc(-n3cncn3)n2)CC1	329 µM (≈ 128 µg/mL)	658 µM (≈ 256 µg/mL)	658 µM (≈ 256 µg/mL)	658 µM (≈ 256 µg/mL)	658 µM (≈ 256 µg/mL)	658 µM (≈ 256 µg/mL)	165 µM (≈ 64.3 µg/mL)	658 µM (≈ 256 µg/mL)	658 µM (≈ 256 µg/mL)	165 µM (≈ 64.3 µg/mL)	658 µM (≈ 256 µg/mL)
OCCN(CCO)c1nccc(-n2cnnn2)n1	–	1020 µM (≈ 256 µg/mL)	1020 µM (≈ 256 µg/mL)	2040 µM (≈ 512 µg/mL)	1020 µM (≈ 256 µg/mL)	1020 µM (≈ 256 µg/mL)	510 µM (≈ 128 µg/mL)	1020 µM (≈ 256 µg/mL)	1020 µM (≈ 256 µg/mL)	1020 µM (≈ 256 µg/mL)	1020 µM (≈ 256 µg/mL)
O=[N+]([O-])c1cn(-c2ccnc(N(CCO)CCO)n2)cn1	435 µM (≈ 128 µg/mL)	870 µM (≈ 256 µg/mL)	435 µM (≈ 128 µg/mL)	870 µM (≈ 256 µg/mL)	435 µM (≈ 128 µg/mL)	870 µM (≈ 256 µg/mL)	–	870 µM (≈ 256 µg/mL)	870 µM (≈ 256 µg/mL)	435 µM (≈ 128 µg/mL)	435 µM (≈ 128 µg/mL)
